{
  "source": "paper PMC4961458",
  "about": "(eLife, 2016)",
  "key": {"[1]": {"system": "Doxycycline-inducible MCF7 cells over-expressing ER (ER.WT)", "assay": "Cell viability, doxycycline-inducible ER over-expressing MCF7 cells", "type": "cell-based", "details": "Homo sapiens, MCF7, 168 h, 7 days; for IC50: 0.1 nM E2, 10 ng/ml doxycycline; for EC50: estrogen-depleted medium, 10 ng/ml doxycycline, read-out: Cell viability EC50, ER.WT -E2"}, "[2]": {"system": "WHIM20 tumors", "type": "in vivo, mice", "details": "no E2 pellets; GDC-0810 100 mg/kg/day; tamoxifen 60 mg/kg/day; fulvestrant 50 mg/kg days 1, 3 and 7, 25 mg/kg weekly thereafter; 35 days", "from_the_text": "Figure 8. […] (B) Gene expression analysis of WHIM20 tumors after 4 days of dosing, harvested 8 hr after the final dose. […] (E) WHIM20 tumors were implanted in mice without supplemental 17β-estradiol pellets.\nThe WHIM20 patient derived xenograft model (WHIM20) was established via direct implantation of metastatic tumor material into immune compromised mice at Washington University in St. Louis ([Li et al., 2013]).\nTumors were established from fragments obtained from Washington University by subcutaneous implantation via 10G trocar into the right flank of 6–7 week old female NOD.CB17-Prkdc^scid/NcrCrl mice (Charles River Laboratories) and NOD.Cg-Prkdc^scid Il2rg^tm1Wjl/SzJ mice (Jackson Laboratories). Tumor line was propagated by serial transplantation. Animals were ovariectomized prior to initiation of treatment."}, "[3]": {"system": "TamR1 tumors", "assay": "Tamoxifen-resistant MCF7 (TamR1) xenograft efficacy", "type": "in vivo, mice", "details": "0.18 mg 60 day E2 pellets; tamoxifen 120 mg/kg/day p.o.; fulvestrant 200 mg/kg 3x/week s.c.; GDC-0810 10, 30 or 100 mg/kg/day p.o.; 27 days", "protocol": "We previously generated a tamoxifen-resistant xenograft model, TamR1, by chronically treating MCF7 tumor bearing mice with tamoxifen until a resistant tumor emerged ([Lai et al., 2015]). […] These experiments were conducted in mice with relatively high levels of circulating estradiol, with estradiol being delivered via 0.72 mg 60 day release E2 pellets that are reported by the manufacturer (Innovative Research) to deliver between 300 and 400 pg/ml estradiol. Under these conditions the high E2 reduces the steady state ERα protein levels, thus confounding the readout of ERα protein as a pharmacodynamic endpoint (Figure 5—figure supplement 1). […] These pellets are sufficient to support tumor growth but only modestly reduce ERα levels (Figure 5—figure supplement 1).\nFigure 5. […] (A) Tamoxifen-resistant MCF7 tumors were implanted in animals supplemented with 60-day release 0.18 mg 17β-estradiol pellets. […] S.c. is sub-cutaneous dosing, and p.o. is per os (by mouth) oral gavage dosing. * Denotes significance (p<0.05) compared to Vehicle in 1-Way ANOVA and Dunnett's Multiple Comparison Test. Figure 5—figure supplement 1. Effects of estradiol pellet on ERα levels in MCF7-TamR1 xenograft tumors. TamR1 tumor fragments were implanted into Crl:NU-Foxn1^nu mice implanted with either 0.72 or 0.18 mg/60 day 17-β estradiol pellets. Once tumors were established pellets were removed from 1 group. 28 days after pellet removal ERα protein levels were determined for 4 tumors from each group. Data is presented as average compared to Vehicle (-E2). Error is standard deviation. * Denotes significance (p<0.05) compared to Vehicle (-E2) by T-test. [drawing 7] […] (A) ERα protein levels were determined by western blot analysis of tumors 8 hr following the final compound treatment on day 27. […] KI-67 expression, quantified from IHC analysis. […]\nThe tamoxifen-resistant derivative of the ER+ human tumor cell line, MCF7 (TamR1) was developed by Seragon Pharmaceuticals, Inc ([Lai et al., 2015]). […] The tumors which continued to grow under these conditions were serially passaged and evaluated for continued tamoxifen resistance. […]"}, "[4]": {"system": "ZR75-1 ER+ breast cancer tumors", "assay": "ZR-75-1 xenograft efficacy", "type": "in vivo, mice", "details": "GDC-0810 100 mg/kg/day p.o., 28 days, 0.72 mg E2 pellets"}, "[5]": {"assay": "GDC-0810 mouse pharmacokinetics"}},
  "data": [
    {"smiles": "C[C@]12CC[C@@H]3c4ccc(O)cc4C[C@@H](CCCCCCCCC[S+]([O-])CCCC(F)(F)C(F)(F)F)[C@H]3[C@@H]1CC[C@@H]2O", "note": "(stereo partly shown) [Fulvestrant]", "values": [
      {"measurement": "IC50", "setting": "[1]", "value": 11, "unit": "nM"},
      {"measurement": "EC50", "setting": "[1]", "value": 1.2, "unit": "nM"},
      {"measurement": "Tumor growth response, WHIM20 PDX", "setting": "[2]", "value": "tumor growth inhibition"},
      {"measurement": "Tumor growth response, TamR1 xenograft, lower E2", "setting": "[3]", "value": "resulted in regression of TamR1 tumors"}
    ]},
    {"smiles": "CC/C(=C(/c1ccc(/C=C/C(=O)O)cc1)c1ccc2[nH]ncc2c1)c1ccc(F)cc1Cl", "note": "[GDC-0810]", "values": [
      {"measurement": "IC50", "setting": "[1]", "value": 19, "unit": "nM"},
      {"measurement": "EC50", "setting": "[1]", "value": 0.8, "unit": "nM"},
      {"measurement": "Tumor growth response, ZR75-1 xenograft", "setting": "[4]", "value": "displayed anti-tumor activity"},
      {"measurement": "Tumor growth response, WHIM20 PDX", "setting": "[2]", "value": "induced tumor stasis"},
      {"measurement": "Oral %F", "setting": "[5]", "value": 61, "unit": "%"},
      {"measurement": "Clast", "setting": "[5]; oral gavage, 10 mg/kg/day", "value": 7, "unit": "ng/mL"},
      {"measurement": "Clast", "setting": "[5]; oral gavage, 30 mg/kg/day", "value": 13, "unit": "ng/mL"},
      {"measurement": "AUC(0-t)", "setting": "[5]; oral gavage, 100 mg/kg/day", "value": 94100, "unit": "ng·h/mL"},
      {"measurement": "half-life", "setting": "[5]; plasma", "value": 2.6, "unit": "h"},
      {"measurement": "Vd", "setting": "[5]; plasma, intravenous", "value": 1.2, "unit": "L/kg"},
      {"measurement": "clearance", "setting": "[5]; plasma, intravenous", "value": 11, "unit": "mL/min/kg"},
      {"measurement": "AUC(0-inf)", "setting": "[5]; plasma, po", "value": 8800, "unit": "ng·h/mL"},
      {"measurement": "Cmax", "setting": "[5]; plasma, po", "value": 4400, "unit": "ng/mL"},
      {"measurement": "AUC(0-t)", "setting": "[5]; plasma, po, 10 mg/kg/day", "value": 5500, "unit": "ng·h/mL"},
      {"measurement": "Cmax", "setting": "[5]; plasma, po, 10 mg/kg/day", "value": 1640, "unit": "ng/mL"},
      {"measurement": "Tmax", "setting": "[5]; plasma, po, 10 mg/kg/day", "value": 1, "unit": "h"},
      {"measurement": "half-life", "setting": "[5]; plasma, po, 10 mg/kg/day", "value": 8, "unit": "h"},
      {"measurement": "AUC(0-t)", "setting": "[5]; plasma, po, 30 mg/kg/day", "value": 21500, "unit": "ng·h/mL"},
      {"measurement": "Cmax", "setting": "[5]; plasma, po, 30 mg/kg/day", "value": 5330, "unit": "ng/mL"},
      {"measurement": "Tmax", "setting": "[5]; plasma, po, 30 mg/kg/day", "value": 1, "unit": "h"},
      {"measurement": "half-life", "setting": "[5]; plasma, po, 30 mg/kg/day", "value": 4, "unit": "h"},
      {"measurement": "AUC(0-t)", "setting": "[5]; plasma, po, 100 mg/kg/day", "value": 94100, "unit": "ng·h/mL"},
      {"measurement": "Cmax", "setting": "[5]; plasma, po, 100 mg/kg/day", "value": 9310, "unit": "ng/mL"},
      {"measurement": "Tmax", "setting": "[5]; plasma, po, 100 mg/kg/day", "value": 8, "unit": "h"},
      {"measurement": "concentration at 24 h", "setting": "[5]; plasma, po, 100 mg/kg/day", "value": 216, "unit": "ng/mL"},
      {"measurement": "half-life", "setting": "[5]; plasma, po, 100 mg/kg/day", "value": 3, "unit": "h"},
      {"measurement": "Tumor growth response, TamR1 xenograft, lower E2", "setting": "[3]", "value": "induced regression at all doses tested"}
    ]}
  ]
}
